Experimental data taken from patent publication US20240139183A1, “COMPOUND FOR SUPPRESSING NONSENSE-MEDIATED MRNA DECAY” (RiboTech Co., Ltd., priority 2021, published 2024).

Tests used:
[1] = tested on: dystrophin protein in cells derived from patients with DMD; assay: Dystrophin protein by Western blotting in DMD patient-derived cell line; type: cell-based, human; conditions: 5 μM, 12 hours, FIG. 11
[2] = molecular target: T1, binding between UPF1 and UPF2 (Homo sapiens, UniProt Q92900); assay: FLAG-UPF1 immunoprecipitation / western blotting for UPF1-UPF2 binding; type: cell-based; conditions: 5 μM, 1 hour; FLAG-UPF1 overexpressed; immunoprecipitation with FLAG antibody; FIG. 6
T1 construct: expressed in transfected cells
T1 sequence (Q92900 1-1129): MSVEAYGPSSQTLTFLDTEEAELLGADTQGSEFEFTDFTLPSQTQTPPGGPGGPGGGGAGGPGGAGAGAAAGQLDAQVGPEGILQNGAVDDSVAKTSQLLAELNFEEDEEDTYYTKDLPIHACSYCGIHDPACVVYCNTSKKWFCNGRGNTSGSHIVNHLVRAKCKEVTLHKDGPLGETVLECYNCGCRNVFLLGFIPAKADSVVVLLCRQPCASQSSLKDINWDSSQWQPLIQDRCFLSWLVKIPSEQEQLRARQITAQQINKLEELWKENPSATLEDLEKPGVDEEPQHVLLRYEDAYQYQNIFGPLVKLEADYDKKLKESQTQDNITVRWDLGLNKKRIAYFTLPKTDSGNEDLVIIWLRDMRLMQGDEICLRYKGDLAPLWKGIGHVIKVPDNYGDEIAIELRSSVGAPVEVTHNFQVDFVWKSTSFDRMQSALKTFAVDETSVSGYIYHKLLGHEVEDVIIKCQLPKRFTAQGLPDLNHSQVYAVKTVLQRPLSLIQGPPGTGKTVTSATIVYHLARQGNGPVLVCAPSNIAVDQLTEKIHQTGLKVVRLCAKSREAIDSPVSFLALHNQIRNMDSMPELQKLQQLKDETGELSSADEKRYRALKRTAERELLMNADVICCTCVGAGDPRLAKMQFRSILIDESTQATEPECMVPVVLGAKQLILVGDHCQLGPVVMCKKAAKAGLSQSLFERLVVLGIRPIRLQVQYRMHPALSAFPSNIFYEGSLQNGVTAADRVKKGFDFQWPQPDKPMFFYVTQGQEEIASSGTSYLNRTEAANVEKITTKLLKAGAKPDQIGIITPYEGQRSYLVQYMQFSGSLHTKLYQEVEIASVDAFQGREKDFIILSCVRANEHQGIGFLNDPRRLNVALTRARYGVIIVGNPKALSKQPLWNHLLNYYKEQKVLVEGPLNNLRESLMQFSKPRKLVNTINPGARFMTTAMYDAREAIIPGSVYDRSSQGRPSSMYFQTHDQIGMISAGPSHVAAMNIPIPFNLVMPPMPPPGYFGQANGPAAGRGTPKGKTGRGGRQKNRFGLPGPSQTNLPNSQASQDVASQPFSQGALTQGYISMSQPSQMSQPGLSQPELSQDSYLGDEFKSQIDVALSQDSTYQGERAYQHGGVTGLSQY
Method: In the cell line, DNA expressing FLAG-UPF1 was transiently overexpressed.
After treating the cell line with each compound at 5μM for 1 hour, a cell extract was obtained. Immunoprecipitation was performed on the cell extract obtained using a FLAG antibody.
Proteins before and after immunoprecipitation were analyzed by western blotting.

UPF1 = assay: Western blotting of UPF1 phosphorylation in treated cells; type: cell-based; conditions: 5 μM, 12 hours, FIG. 5
Method: Phosphorylation of UPF1 was known to be one of the most important factors in NMD. In Example 3.1, the effect of the three types of compounds of the present invention on phosphorylation of UPF1 was examined. The cells were treated with each compound at 5 μM for 12 hours, and then total proteins were purified. Then, western blotting was performed using each antibody capable of recognizing Upf1 or Upf1 phosphorylated at a specific site.

[3] = tested on: NMD steps (Upf1, Upf2, Upf3X tethered to reporter β-6bs mRNA); assay: Tethering assay: MS2-Upf1, MS2-Upf2, MS2-Upf3 tethered to 3' UTR of reporter mRNA in HeLa cell line, real-time PCR; type: cell-based; conditions: 5 μM, 6 hours or 12 hours, FIGS. 8 and 9
Method: An NMD-based search system capable of artificially reducing the amount of reporter mRNA was constructed, after artificially tethering proteins Upf1, Upf2, and Upf3X acting in each step of NMD to 3′ UTR of reporter mRNA (FIG. 7). Using this method, it was attempted to verify which step of NMD the three types of compounds acted on.
After treating the cell line with each compound at 5 μM for 6 hours or 12 hours, a cell extract was obtained. Thereafter, the relative amount of reporter mRNA was measured through real-time PCR.

[4] = tested on: NMD (HeLa cell line constitutively expressing the NMD-target mRNA); assay: NMD inhibitory effect in HeLa reporter cell line: RLuc mRNA (real-time PCR) and protein (dual luciferase assay); type: cell-based; conditions: 5 μM, 12 hours, FIG. 4; for amount of RLuc mRNA: real-time PCR
Text: In Example 1, a beta-globin normal gene or the gene including a premature termination codon (PTC) found in genetic diseases was inserted into the downstream of a chemiluminescence gene, Renilla luciferase (RLuc). Normal gene-inserted mRNA was not targeted by NMD, whereas when a gene having PTC was inserted, the mRNA became a NMD target, and as a result, mRNA was quickly broken down and the expression level of RLuc was reduced.
Accordingly, a HeLa cell line constitutively expressing the NMD-target mRNA was prepared, and simultaneously, the cell line was designed to constitutively express a firefly luciferase (FLuc) gene, which was not a target of NMD, and a total of three cell lines NMD20, NMD4, and NMD5 with the same composition were obtained. In order to confirm whether the HeLa cell line prepared above was suitable for measuring NMD efficiency, the following two experiments were performed.
The NMD inhibitory effect of Compounds 1 to 3 was confirmed using the HeLa cell line prepared in Example 1. After treating the cells with Compounds 1 to 3 at 5 μM for 12 hours, respectively, total RNA and protein were purified from the cells, respectively. Then, the amounts of RNA and protein were quantified respectively through real-time PCR and dual luciferase assay methods. The results were illustrated in FIG. 4.

| Compound | amount of dystrophin protein [1] | effect on UPF1-UPF2 binding [2] | effect on phosphorylation of UPF1 (UPF1) | step of NMD targeted (relative amount of reporter mRNA) [3] | protein translation of RLuc ([4]; dual luciferase assay) | amount of RLuc mRNA [4] |
| --- | --- | --- | --- | --- | --- | --- |
| COc1ncc(-c2ccc3nccc(-c4ccnnc4)c3c2)cc1NS(=O)(=O)c1ccc(F)cc1F [Compound 1, 2,4-Difluoro-N-{2-(methyloxy)-5-[4-(4-pyridazinyl)-6-quinolinyl]-3-pyridinyl}benzenesulfonamide] | increased | significantly inhibited the UPF1-UPF2 binding | did not significantly affect phosphorylation of UPF1 | targeted a UPF1-UPF2 step | increased protein translation of RLuc | – |
| Cn1c(=O)n(-c2ccc(C(C)(C)C#N)cc2)c2c3cc(-c4cnc5ccccc5c4)ccc3ncc21 [Compound 2, 2-methyl-2-{4-[3-methyl-2-oxo-8-(quinolin-3-yl)-2,3-dihydro-1H-imidazo[4,5-c]quinolin-1-yl]phenyl}propanenitrile] | – | did not significantly affect the UPF1-UPF2 binding | significantly inhibited phosphorylation of UPF1 | did not target the UPF1-UPF2 and UPF2-UPF3 steps | – | significantly increased the amount of mRNA |
| COc1cc2ncnc(-n3nc(-c4ccccn4)nc3N)c2cc1OC [Compound 3, 1-(6,7-Dimethoxy-4-quinazolinyl)-3-(2-pyridinyl)-1H-1,2,4-Triazol-5-amine] | – | did not significantly affect the UPF1-UPF2 binding | did not significantly affect phosphorylation of UPF1 | did not target the UPF1-UPF2 and UPF2-UPF3 steps | – | significantly increased the amount of mRNA |
